This note sets out measurements from ChEMBL document CHEMBL1125524, “Adenosine A1 antagonists. 2. Structure-activity relationships on diuretic activities and protective effects against acute renal failure” (J Med Chem, 1992).

The term Ki denotes a measure of affinity in units of concentration, obtained from inhibition or displacement. A low value points to a stronger hold on the target. Usually inhibition in vivo stands for the relative decrease from the control value, in per cent. One may read the Inhibition as the percentage by which the read-out fell short of the control.

In assay [1] the target is T1, Adenosine receptor A1 (Cavia porcellus, UniProt P47745).
T1 sequence (P47745 whole entry): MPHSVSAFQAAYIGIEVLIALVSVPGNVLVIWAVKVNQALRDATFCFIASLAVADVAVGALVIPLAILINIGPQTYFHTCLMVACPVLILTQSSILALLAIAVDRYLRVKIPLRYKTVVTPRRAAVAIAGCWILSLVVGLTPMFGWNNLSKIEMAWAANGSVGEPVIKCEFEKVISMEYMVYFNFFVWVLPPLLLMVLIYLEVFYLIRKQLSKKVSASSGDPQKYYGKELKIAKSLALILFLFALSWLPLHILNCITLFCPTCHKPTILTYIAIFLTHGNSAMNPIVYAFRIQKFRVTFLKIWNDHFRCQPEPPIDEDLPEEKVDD
Description: Binding affinity against adenosine A1 receptor in guinea pig forebrain membranes using N6-[3H]cyclohexyladenosine as radioligand

Assay [2] relates to Rattus norvegicus. As to the kind of experiment: Percent inhibition of Urea nitrogen by the compound given as ratio of UN value in treated to vehicle treated ones after intraperitoneal administration of 1 mg/kg of compound to rats(vehicle 154+/-7). It is filed as functional. The conditions noted are these: ip.
Assay [3] has as its target Adenosine A2 receptor (Rattus norvegicus, UniProt P29276+P30543).
Assay [4] deals with Rattus norvegicus. As to the kind of experiment: Ratio of urinary excretion value (urinary volume) in treated rats to that in control rats, at a peroral dose of 6.25 mg/Kg. Type of assay: functional, Urine.
The subject of assay [5] is Rattus norvegicus. As to the kind of experiment: Percent inhibition of serum creatinine by the compound given as ratio of Cr value in treated to vehicle treated ones after intraperitoneal administration of 1 mg/kg of compound to rats(vehicle 4.91+/-0.10). Type of assay: functional. The conditions noted are these: ip.
For assay [6], the system named is Rattus norvegicus. As to the kind of experiment: Urea nitrogen concentration measured after intraperitoneal administration of 1 mg/kg of compound to rats(vehicle 154+/-7). It is filed as functional.
Assay [7] has as its system Rattus norvegicus. As to the kind of experiment: Serum creatinine concentration measured after intraperitoneal administration of 1 mg/kg of compound to rats(vehicle 4.91+/-0.10). It is filed as functional.
The subject of assay [8] is Rattus norvegicus. As to the kind of experiment: Ratio of urinary excretion value (Na+ concentration) in treated rats to that in control rats, at a peroral dose of 6.25 mg/Kg. Type of assay: functional, Urine.
Assay [9] relates to Rattus norvegicus. As to the kind of experiment: Effect on urinary excretion potassium and sodium after oral administration of 0.01 mg/kg to rats(potassium and sodium excretion in control rat is 0.180+/-0.017). It is filed as functional, Urine.
Assay [10] has as its system Rattus norvegicus. As to the kind of experiment: Ratio of sodium ion/potassium ion concentration in treated rats to that in control rats, at a peroral dose of 1.6 mg/Kg. It is filed as functional.
Assay [11] relates to Rattus norvegicus. As to the kind of experiment: Serum creatinine concentration measured after intraperitoneal administration of 1 mg/kg of compound to rats(vehicle 4.5+/-0.24). It is filed as functional.
Assay [12] relates to Rattus norvegicus. As to the kind of experiment: Ratio of urinary excretion value (Na+ concentration) in treated rats to that in control rats, at a peroral dose of 0.4 mg/Kg. Type of assay: functional, Urine.
The test system of assay [13] is Rattus norvegicus. As to the kind of experiment: Oral diuretic activity was measured after oral administration of 0.4 mg/kg to rats(control volume is 0.97+/-0.05). Type of assay: functional, Urine.
In assay [14] the test system is Rattus norvegicus. As to the kind of experiment: Ratio of urinary excretion value (Na+ concentration) in treated rats to that in control rats, at a peroral dose of 0.01 mg/Kg. It is filed as functional, Urine.
Assay [15] deals with Rattus norvegicus. As to the kind of experiment: Urea nitrogen concentration measured after intraperitoneal administration of 0.1 mg/kg of compound to rats(vehicle 141.3+/-8.3). It is filed as functional.
Assay [16] deals with Rattus norvegicus. As to the kind of experiment: Oral diuretic activity was measured after oral administration of 1.6 mg/kg to rats(control volume is 1.12+/-0.05). Type of assay: functional, Urine.
Assay [17] deals with Rattus norvegicus. As to the kind of experiment: Effect on urinary excretion potassium and sodium after oral administration of 0.1 mg/kg to rats(potassium and sodium excretion in control rat is 0.147+/-0.015). Type of assay: functional, Urine.
In assay [18] the test system is Rattus norvegicus. As to the kind of experiment: Oral diuretic activity was measured after oral administration of 0.1 mg/kg to rats(control volume is 0.96+/-0.09). Type of assay: functional, Urine.
Assay [19] deals with Rattus norvegicus. As to the kind of experiment: Ratio of sodium ion/potassium ion concentration in treated rats to that in control rats, at a peroral dose of 0.4 mg/Kg. It is filed as functional.
Assay [20] relates to Rattus norvegicus. As to the kind of experiment: Oral diuretic activity was measured after oral administration of 0.01 mg/kg to rats(control volume is 1.05+/-0.11). Type of assay: functional, Urine.
Assay [21] relates to Rattus norvegicus. As to the kind of experiment: Ratio of urinary excretion value (urinary volume) in treated rats to that in control rats, at a peroral dose of 0.01 mg/Kg. Type of assay: functional, Urine.
In assay [22] the test system is Rattus norvegicus. As to the kind of experiment: Effect on urinary excretion potassium and sodium after oral administration of 1.6 mg/kg to rats(potassium and sodium excretion in control rat is 0.189+/-0.005). It is filed as functional, Urine.
For assay [23], the system named is Rattus norvegicus. As to the kind of experiment: Urea nitrogen concentration measured after intraperitoneal administration of 1 mg/kg of compound to rats(vehicle 151.5+/-7.4). Type of assay: functional.
Assay [24] relates to Rattus norvegicus. As to the kind of experiment: Serum creatinine concentration measured after intraperitoneal administration of 0.1 mg/kg of compound to rats(vehicle 5.43+/-0.11). It is filed as functional.
For assay [25], the system named is Rattus norvegicus. As to the kind of experiment: Ratio of urinary excretion value (urinary volume) in treated rats to that in control rats, at a peroral dose of 0.1 mg/Kg. Type of assay: functional, Urine.
Assay [26] has as its system Rattus norvegicus. As to the kind of experiment: Effect on urinary excretion potassium and sodium after oral administration of 0.4 mg/kg to rats(potassium and sodium excretion in control rat is 0.0.169+/-0.012). It is filed as functional, Urine.
The subject of assay [27] is Rattus norvegicus. As to the kind of experiment: Ratio of urinary excretion value (Na+ concentration) in treated rats to that in control rats, at a peroral dose of 0.1 mg/Kg. It is filed as functional, Urine.
Assay [28] concerns Rattus norvegicus. As to the kind of experiment: Ratio of urinary excretion value (Na+ concentration) in treated rats to that in control rats, at a peroral dose of 1.6 mg/Kg. Type of assay: functional, Urine.
Assay [29] has as its system Rattus norvegicus. As to the kind of experiment: Ratio of urinary excretion value (urinary volume) in treated rats to that in control rats, at a peroral dose of 0.4 mg/Kg. It is filed as functional, Urine.
The subject of assay [30] is Rattus norvegicus. As to the kind of experiment: Ratio of urinary excretion value (urinary volume) in treated rats to that in control rats, at a peroral dose of 1.6 mg/Kg. It is filed as functional, Urine.
Assay [31] concerns Rattus norvegicus. As to the kind of experiment: Ratio of sodium ion/potassium ion concentration in treated rats to that in control rats, at a peroral dose of 0.1 mg/Kg. It is filed as functional.
Assay [32] is filed under the species Rattus norvegicus. As to the kind of experiment: Percent inhibition of serum creatinine by the compound given as ratio of Cr value in treated to vehicle treated ones. Type of assay: functional.
Assay [33] has as its system Rattus norvegicus. As to the kind of experiment: Ratio of sodium ion/potassium ion concentration in treated rats to that in control rats, at a peroral dose of 0.01 mg/Kg. Type of assay: functional.

Molecules are shown by their SMILES. “And” between values parts separate entries of the source, which are not always exact repeats. Equal values may be shown once.

As for `CCCn1c(=O)[nH]c(=O)c2[nH]c(C3CCCC3)nc21`, the Ki was 1400 nM in [1] and > 100000 nM in [3]. The inhibition in vivo at 1 mg/kg is 24% in assay [2] and 28% in assay [5]. For the same molecule, the T/C in assay [4] is recorded as 1.76; in assay [8], 2.07. In assay [6], this molecule yielded a UN of 117 mg/dL. The molecule further gave a Cr in assay [7] of 3.51 mg/dL.
With `CCCCn1c(=O)c2nc(C34CC5CC(CC3C5)C4)[nH]c2n(CCCC)c1=O`, the Na in assay [9] was 0.176 m equiv 6hr-1 100g-1; in [17] it was 0.279 m equiv 6hr-1 100g-1; in assay [22], 0.426 m equiv 6hr-1 100g-1; in [26], 0.412 m equiv 6hr-1 100g-1. Besides, the “Na+/K+” value is on record as 1.61 in assay [10], 1.89 in [19], 1.58 in assay [31] and 1.05 in assay [33]. Besides, the figures for the Cr in [11] and in assay [24] were 2.82 mg/dL and 2.63 mg/dL, respectively. Besides, the T/C came to 2.45 in assay [12]; 0.98 in assay [14]; 0.74 in [21]; 1.83 in assay [25]; 1.89 in assay [27]; 2.26 in [28]. The values for the T/C in assay [29] and in assay [30] were 2.58 and 2.25, respectively. In addition, the Urine volume amounted to 2.5 ml 6hr-1 100g-1 in assay [13], 2.52 ml 6hr-1 100g-1 in assay [16], 1.76 ml 6hr-1 100g-1 in [18] and 0.78 ml 6hr-1 100g-1 in [20]. The UN in assay [15] was 119.4 mg/dL; in assay [23] it was 62.1 mg/dL. In assay [3], this molecule registered a Ki of 1100 nM. Also, in assay [32], the Inhibition is 45% and 19%.
